Data set [1] can be described thus: Storage under ambient conditions followed by FT-Raman. Type of data set: physicochemical. Conditions: about a month. As to the method: FT-Raman spectra were recorded on a Bruker RFS 100 FT-Raman system with a near infrared Nd:YAG laser operating at 1064 nm and a liquid nitrogen-cooled germanium detector. 64 scans with a resolution of 2 cm^−1 were accumulated in the range from 3500 to 50 cm^−1. In general, 100 mW laser power was used.
The Raman spectrum was recorded directly after recrystallisation. All samples were then stored under ambient conditions on a shelf in a fume hood. […] This is shown in FIG. 4, where the lower spectrum accords to the earlier measurement and the upper spectrum accords to the later measurement.

Data set [2] is described as follows: Stability study at different moisture levels and temperatures (appearance, Karl Fischer, PXRD). The data set is classed as physicochemical. As to the method: To determine the relative stability of pemirolast sodium obtained in accordance with the method described in Example 10 (hemihydrate), Example 11 (heptahydrate) and Example 5 (amorphous form) at different moisture levels, a stability study was performed.
The study was performed under four different storage conditions with different moisture levels and temperatures, 40° C./75% RH, 25° C./60% RH, room temperature/10-20% RH, and room temperature/>90% RH. The substances were stored open in glass beakers and samples were withdrawn periodically for analysis (time zero, 1 week and 4 weeks).
At the time intervals mentioned, the visual appearance was inspected by (a) placing a spatula of substance on a white background, munktell filter (no smearing or crushing of the substances was performed), and (b) by microscopy equipped with plane polarized light. The water content was also analysed using Karl Fischer titration. PXRD was conducted at time zero and at 4 weeks.

Data set [3] can be described thus: In vitro dissolution study (Ph. Eur. Apparatus 2, paddle). Type of data set: physicochemical. The settings on record: 30 mg, 50 mM phosphate buffer pH 6.8, 50 rpm, 37° C. The procedure:
An in vitro dissolution study was performed on pemirolast potassium (obtained Chemtronica AB, Stockholm, Sweden) and pemirolast sodium hemihydrate (prepared in accordance with the method described in Example 10 above) using standard Ph. Eur. Methodology (Apparatus 2 (paddle), Ph. Eur., 2.9.3, using 50 mM phosphate buffer pH 6.8 as a dissolution medium. A stirring rate of 50 rpm was employed. The temperature was 37° C.). Tests were performed in triplicate. 30 mg of each substance was added to separate vessels and the timer started. Sampling was at regular intervals using a 1 mL plastic syringe, depending on how quickly the substance appeared to dissolve (by visual inspection). The sample was filtered into HPLC vials using a small diameter filter. The samples were analysed by reversed phase HPLC. Quantification of pemirolast was performed by means of UV detection.

Data set [4] is described as follows: Aqueous solubility (shake 24 hours, HPLC of filtrate). Type of data set: physicochemical. The settings on record: doubly distilled water, 22° C. The procedure:
About 40 mg of a sample (obtained by way of the procedure described in Example 2 above) was dispersed in 0.25 mL of doubly distilled water. The suspension was shaken at 22° C. for 24 hours. Afterwards, a fast solid/liquid-separation was performed using an Eppendorf Thermomixer Comfort (400 rpm). The suspensions were filtered with Millipore Centrifugal Filter Devices (PTFE filter; 0.2 μm) in a Centrifuge Hettich EBA 12 R (15,000 g, 1 minute, 22° C.). The concentration of the sample in the filtrate was analyzed by HPLC, and the solid phase was analyzed by FT-Raman spectroscopy.

The conditions of data set [5]: humans; cited from earlier work.
Data set [6] can be described thus: Dynamic Vapor Sorption (DVS) hygroscopicity classification. The data set is classed as physicochemical. Conditions: for relative humidity above which significant water uptake starts: DVS; for hygroscopicity class by DVS analysis: mass change at 85% RH compared to the starting material. The procedure: HPLC was performed on a TSP HPLC (UV3000, AS3000, P4000, SCM1000 Soft. Version 4.1); column: Waters, X Terra MS C18 4.6×100 mm, 5μ (CC01); mobile phase A: H2O+0.1% TFA; mobile phase B: acetonitrile+0.1% TFA; reference concentration: ca. 0.09 mg/mL; retention time: 6.6 minutes; gradient: 0.0 min: A:95%/B:5%; 20.0 min: A:5%/B:95%; 21.0 min: A:95%/B:5%; 30.0 min: A:95%/B:5%; flow: 1.0 mL/minute; injection volume: 10 μL; wavelength: 254 nm. Dynamic Vapor Sorption (DVS) measurements were carried out on a Sorption Measurement System SPS11-100n. The sample was placed in an aluminum crucible and the sample was allowed to equilibrate at a given RH before starting a pre-defined humidity program. (1) 2 h at 50% RH; (2) 50→0% RH (5%/h); (3) 5 h at 0% RH; (4) 0→95% RH (5%/h); (5) 5 h at 95% RH; (6) 95→50% RH (5%/h); (7) 2 h at 50% RH. Hygroscopicity was classified according to the European Pharmacopoeia (storage at 80% RH/25° C. for 24 hours). The mass change at 85% RH was used for classification, as compared to the starting material (at ambient conditions)—very hygroscopic: increase of mass ≧15%; hygroscopic: increase of mass is less than 15% and equal to or greater than 2%; slightly hygroscopic: increase of mass is less than 2% and equal to or greater than 0.2%; deliquescent: sufficient water is absorbed to form a liquid.

The conditions of data set [7]: cited from earlier work.
The nature of data set [8]: PXRD of 30 mg tablets after tabletting. The data set is classed as physicochemical. Conditions: crushed and intact. As to the method:
For all tablets, friability and crushing resistance tests were conducted according to standard methodology (Ph. Eur. 6.0, 2.9.7 and 2.9.8, respectively, with the exception that the crushing resistance results are presented in kp rather than N according to the Ph. Eur.). PXRD was also performed on the 30 mg tablets after tabletting on both crushed and intact tablets. In view of the endotherms observed (and reported in Example 11 above) by DSC for the heptahydrate, it was expected that this may limit the ability of that polymorph to form tablets by compression (given that internal temperatures of 70° C. can easily be reached during the compression process). It was therefore decided to analyse the 30 mg tablets by PXRD as stated above.

In the next data set the test system is plasma tryptase. The data set is described as follows: Plasma tryptase levels in subjects with CRP above 0.9 mg/L. Type of data set: in vivo.
The mark [9] stands for this setting: listed as potassium salt of pemirolast.
The mark [10] stands for this setting: listed as Example 2, Sodium Hemihydrate.
The mark [11] stands for this setting: listed as Example 1, Sodium Hemihydrate.

Turning to `Cc1cccn2c(=O)c(-c3nnn[n-]3)cnc12.[Na+]` [amorphous form of pemirolast sodium, reference compound], the “physical stability (Raman spectrum changed)” value in data set [1] was “physically unstable”. Besides, the solid phase stability entry is given as “crystallized” in data set [2] (60% RH and above); “remains amorphous” in data set [2] (dry conditions (10-20% RH)).
In general, aqueous solubility refers to the dissolved amount per volume that the medium holds. For `Cc1cccn2c(=O)c(-c3nnn[nH]3)cnc12` [pemirolast potassium, reference compound], the dissolution behaviour entry in [3] (listed as potassium salt) is “dissolved as soon as it was added to the dissolution medium”. For the same molecule, in data set [4] (setting [9]), the aqueous solubility is recorded as 192.38 mg/mL and the “pH of the saturated solution” value was 9.0. For the same molecule, in data set [5], the plasma concentration profile result is listed as “sharp plasma concentration peaks”. In data set [6], the “relative humidity above which significant water uptake starts” value is reported as “above 70 % RH” and the “hygroscopicity class by DVS analysis” value was “very hygroscopic (very hygroscopic: increase of mass ≧15%)”. For the same molecule, the “hygroscopicity (reported)” value in data set [7] (Pharmaceutical Interview Form) is on record as “hygroscopic”. The “aqueous solubility (reported)” value in [7] (source: Pharmaceutical Interview Form) was 179 to 182 mg/mL.
As to `Cc1cccn2c(=O)c(-c3nnn[nH]3)cnc12` [pemirolast sodium hemihydrate, Pemirolast Sodium Hemihydrate], the dissolution behaviour result in data set [3] (listed as sodium hemihydrate salt, Sodium Hemihydrate) is “formed large aggregates and appeared to be more difficult to dissolve”. Further, in [4] (setting [10]), the aqueous solubility was found to be 23.64 mg/mL and the “pH of the saturated solution” value amounted to 8.0. Further, in data set [6] (setting [11]), the “relative humidity above which significant water uptake starts” value is “above 80 % RH”; the “hygroscopicity class by DVS analysis” value was “hygroscopic (hygroscopic: increase of mass is less than 15% and equal to or greater than 2%)”. The “phase transitions during tabletting (PXRD)” value in data set [8] was “no phase transitions occurred”. Moreover, the solid phase stability entry in data set [2] (75% RH and above) is listed as “converted to a previously unknown solid state form”. For the same molecule, in [2] (relative humidity of 60% and less (down to 10-20% RH), up to 4 weeks), the solid phase stability entry is recorded as “stable”. In addition, the “water content (Karl Fischer) on storage, unchanged” value in data set [2] (relative humidity of 60% and less, up to 4 weeks) is recorded as 2.8%.
For the molecule `Cc1cccn2c(=O)c(-c3nn[n-]n3)cnc12.O.O.O.O.O.O.O.[Na+]` [pemirolast sodium heptahydrate, Pemirolast Sodium Heptahydrate], in data set [8], the “phase transitions during tabletting (PXRD)” value is listed as “no phase transitions occurred”. In addition, the solid phase stability entry in [2] (60% RH, up to 4 weeks) is on record as “stable”; in data set [2] (75% RH) it was “converted partially to the new solid state form”; in [2] (90% RH) it was “no signs of phase transitions were observed”; in data set [2] (dry conditions (10-20% RH)) it was “converted to the hemihydrate form”.
For `Cc1cccn2c(=O)c(-c3nnn[nH]3)cnc12` [pemirolast, 9-Methyl-3-(1H-tetrazol-5-yl)-4H-pyrido[1,2-a]pyrimidin-4-one], the “effect on plasma tryptase levels” value with plasma tryptase was “does not concomitantly reduce plasma tryptase levels”.
